Laboratory results published in ChEMBL document CHEMBL1201862, “PubChem BioAssay data set” (2004).
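Protocol summary: plate cells (96-well), add compound at 5 concentrations, incubate 48 h, interpolate endpoints linearly. The concentration for 50% growth inhibition is given as GI50.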 The source made the active and inactive calls. Rule as the data show it: active = GI50 up to about 1.1 µM and inactive = higher.

Columns and labels:
Assay in all cases: NCI anticancer screen, dose series, 48 h
EKVX = tested on: EKVX
SK-MEL-2 = tested on: SK-MEL-2
A549 = tested on: A549
COLO 205 = tested on: COLO 205
SF-539 = tested on: SF-539
Malme-3M = tested on: Malme-3M
786-0 = tested on: 786-0
UACC-257 = tested on: UACC-257
SK-OV-3 = tested on: SK-OV-3
RXF 393 = tested on: RXF 393
MOLT-4 = tested on: MOLT-4
OVCAR-5 = tested on: OVCAR-5
HCC 2998 = tested on: HCC 2998
M14 = tested on: M14
HL-60 = tested on: HL-60
NCI-H460 = tested on: NCI-H460

Row | Compound | GI50 (EKVX) | GI50 (SK-MEL-2) | GI50 (A549) | GI50 (COLO 205) | GI50 (SF-539) | GI50 (Malme-3M) | GI50 (786-0) | GI50 (UACC-257) | GI50 (SK-OV-3) | GI50 (RXF 393) | GI50 (MOLT-4) | GI50 (OVCAR-5) | GI50 (HCC 2998) | GI50 (M14) | GI50 (HL-60) | GI50 (NCI-H460)
1 | O=c1[nH]c(C2CCCCC2)nc2cc(Cl)ccc12 | > 100 µM (inactive) | > 100 µM (inactive) | > 100 µM (inactive) | > 100 µM (inactive) | > 100 µM (inactive) | > 100 µM (inactive) | 70 µM (inactive) | > 100 µM (inactive) | > 100 µM (inactive) | 45.6 µM (inactive) | > 100 µM (inactive) | > 100 µM (inactive) | > 100 µM (inactive) | – | – | –
2 | CC/C(CC(=O)CCC(=O)Nc1ccc(C)c(C)c1)=N\NC(=O)C(N)=O | > 100 µM (inactive) | – | > 100 µM (inactive) | > 100 µM (inactive) | > 100 µM (inactive) | > 100 µM (inactive) | > 100 µM (inactive) | > 100 µM (inactive) | > 100 µM (inactive) | – | > 100 µM (inactive) | > 100 µM (inactive) | – | > 100 µM (inactive) | > 100 µM (inactive) | –
3 | O=C(O)Cc1cc(=O)oc2cc(O)c(Cl)cc12 | > 100 µM (inactive) | > 100 µM (inactive) | > 100 µM (inactive) | > 100 µM (inactive) | > 100 µM (inactive) | > 100 µM (inactive) | > 100 µM (inactive) | – | > 100 µM (inactive) | – | > 100 µM (inactive) | > 100 µM (inactive) | > 100 µM (inactive) | > 100 µM (inactive) | > 100 µM (inactive) | > 100 µM (inactive)
4 | COP(=O)(OC)/C(=N\Nc1ccc([N+](=O)[O-])cc1)NCc1ccccc1 | – | 23 µM (inactive) | 31.3 µM (inactive) | 46.3 µM (inactive) | 17.7 µM (inactive) | 38.5 µM (inactive) | 34.3 µM (inactive) | 21.8 µM (inactive) | – | – | 25.8 µM (inactive) | 40.3 µM (inactive) | 62.5 µM (inactive) | 21.4 µM (inactive) | 21.2 µM (inactive) | 27.8 µM (inactive)
5 | CC1(O)CCn2c(=O)c3cc4ccccc4cc3c(=O)n2C1O (centres undefined) | > 100 µM (inactive) | > 100 µM (inactive) | > 100 µM (inactive) | > 100 µM (inactive) | > 100 µM (inactive) | > 100 µM (inactive) | > 100 µM (inactive) | > 100 µM (inactive) | > 100 µM (inactive) | > 100 µM (inactive) | > 100 µM (inactive) | > 100 µM (inactive) | > 100 µM (inactive) | – | > 100 µM (inactive) | > 100 µM (inactive)
6 | C[C@H]1COC2(c3ccccc3)CCC(=O)N12 (some centres undefined) | > 100 µM (inactive) | > 100 µM (inactive) | > 100 µM (inactive) | > 100 µM (inactive) | > 100 µM (inactive) | > 100 µM (inactive) | > 100 µM (inactive) | > 100 µM (inactive) | – | > 100 µM (inactive) | – | > 100 µM (inactive) | – | – | – | > 100 µM (inactive)
7 | O=C(/C=C/c1c(O)ccc2ccccc12)c1ccc2ccccc2c1 | > 100 µM (inactive) | > 100 µM (inactive) | > 100 µM (inactive) | > 100 µM (inactive) | > 100 µM (inactive) | > 100 µM (inactive) | > 100 µM (inactive) | > 100 µM (inactive) | > 100 µM (inactive) | > 100 µM (inactive) | > 100 µM (inactive) | > 100 µM (inactive) | > 100 µM (inactive) | – | > 100 µM (inactive) | > 100 µM (inactive)
8 | CC(=O)NC(CCCNC(=O)OCc1ccccc1)C(=O)O (centres undefined) | > 100 µM (inactive) | > 100 µM (inactive) | > 100 µM (inactive) | > 100 µM (inactive) | > 100 µM (inactive) | > 100 µM (inactive) | > 100 µM (inactive) | > 100 µM (inactive) | > 100 µM (inactive) | > 100 µM (inactive) | > 100 µM (inactive) | > 100 µM (inactive) | > 100 µM (inactive) | > 100 µM (inactive) | – | > 100 µM (inactive)
9 | COCOc1ccc(Cn2c(=O)n(C)c(=O)c3c2ncn3C)cc1[N+](=O)[O-] | 54.7 µM (inactive) | – | > 100 µM (inactive) | > 100 µM (inactive) | > 100 µM (inactive) | > 100 µM (inactive) | > 100 µM (inactive) | 57.5 µM (inactive) | 49.3 µM (inactive) | > 100 µM (inactive) | 91.8 µM (inactive) | – | > 100 µM (inactive) | > 100 µM (inactive) | > 100 µM (inactive) | > 100 µM (inactive)
10 | COc1ccc(/C=C2\CCCC(C(NO)c3ccc(OC)cc3)C2=NO)cc1 (centres undefined) | 48.8 µM (inactive) | 85.1 µM (inactive) | 44.5 µM (inactive) | 44.3 µM (inactive) | 27.5 µM (inactive) | 34.1 µM (inactive) | 29.2 µM (inactive) | 38.1 µM (inactive) | > 100 µM (inactive) | 26.7 µM (inactive) | 23.1 µM (inactive) | – | 61.2 µM (inactive) | 39.7 µM (inactive) | 16.2 µM (inactive) | 59.8 µM (inactive)
11 | Cc1ccc2nc3cc(C)c(=O)cc-3sc2c1 | > 100 µM (inactive) | > 100 µM (inactive) | 53.5 µM (inactive) | 94.8 µM (inactive) | > 100 µM (inactive) | > 100 µM (inactive) | > 100 µM (inactive) | 54.6 µM (inactive) | > 100 µM (inactive) | – | 11.8 µM (inactive) | > 100 µM (inactive) | > 100 µM (inactive) | > 100 µM (inactive) | 3.11 µM (inactive) | > 100 µM (inactive)
12 | O=C1NC2C(=O)N(Cc3ccccc3)C(=O)C2N1 (centres undefined) | > 100 µM (inactive) | – | > 100 µM (inactive) | > 100 µM (inactive) | > 100 µM (inactive) | > 100 µM (inactive) | > 100 µM (inactive) | > 100 µM (inactive) | > 100 µM (inactive) | > 100 µM (inactive) | > 100 µM (inactive) | > 100 µM (inactive) | > 100 µM (inactive) | 37.8 µM (inactive) | > 100 µM (inactive) | > 100 µM (inactive)
13 | O=C(CSc1nnc(-c2ccc(/N=C\c3ccc(Cl)cc3)cc2)o1)Nc1ccccc1 | > 100 µM (inactive) | > 100 µM (inactive) | > 100 µM (inactive) | > 100 µM (inactive) | – | > 100 µM (inactive) | 21.5 µM (inactive) | > 100 µM (inactive) | > 100 µM (inactive) | 33 µM (inactive) | 39.6 µM (inactive) | – | – | 76 µM (inactive) | 34.4 µM (inactive) | > 100 µM (inactive)
14 | CC(=O)O[C@H]1C(=O)[C@@]2(C)C(C(OC(=O)c3ccccc3)[C@]3(O)CC(OC(=O)C(O)C(NC(=O)c4ccc(C(F)(F)F)cc4)c4ccccc4)C(C)=C1C3(C)C)[C@]1(OC(C)=O)CO[C@@H]1C[C@@H]2O (some centres undefined) | – | 0.0914 µM (active) | 0.218 µM (active) | 0.0706 µM (active) | 0.166 µM (active) | 0.109 µM (active) | 0.64 µM (active) | 0.236 µM (active) | 0.129 µM (active) | – | 0.0324 µM (active) | 0.158 µM (active) | 0.101 µM (active) | 0.0682 µM (active) | 0.0951 µM (active) | 0.103 µM (active)
